Source: US20240376074A1, “NAMPT INHIBITORS AND USES THEREOF” (Remedy Plan, Inc., priority 2021, published 2024)

Molecular target: T1, NAMPT (Homo sapiens, UniProt P43490)
T1 construct: purchased Abcam ab221819
Assay: NAMPT Activity Assay (Abcam #ab221819)
Format: biochemical
Conditions: purified NAMPT, percent inhibition from OD450 nm; compound concentration not given
Protocol: The NAMPT Activity Assay (Abcam #ab221819) was performed following manufacturers two-step reaction protocol. Briefly, compounds were added to a clear 96-well plate using the HP D300e Digital Dispenser. Purified NAMPT was added to all wells except the No NAMPT controls. Reaction Mix #1 was added to each well and the plate was incubated at 30*C for 1 hr followed by the addition of Reaction Mix #2. Absorbance was measured at OD450 nm using a multimode plate reader. Readings were recorded for 5 minutes and percent inhibition was calculated using: (1-(OD450 nm compound/OD450nm no drug))*100.

T1 sequence (P43490 whole entry): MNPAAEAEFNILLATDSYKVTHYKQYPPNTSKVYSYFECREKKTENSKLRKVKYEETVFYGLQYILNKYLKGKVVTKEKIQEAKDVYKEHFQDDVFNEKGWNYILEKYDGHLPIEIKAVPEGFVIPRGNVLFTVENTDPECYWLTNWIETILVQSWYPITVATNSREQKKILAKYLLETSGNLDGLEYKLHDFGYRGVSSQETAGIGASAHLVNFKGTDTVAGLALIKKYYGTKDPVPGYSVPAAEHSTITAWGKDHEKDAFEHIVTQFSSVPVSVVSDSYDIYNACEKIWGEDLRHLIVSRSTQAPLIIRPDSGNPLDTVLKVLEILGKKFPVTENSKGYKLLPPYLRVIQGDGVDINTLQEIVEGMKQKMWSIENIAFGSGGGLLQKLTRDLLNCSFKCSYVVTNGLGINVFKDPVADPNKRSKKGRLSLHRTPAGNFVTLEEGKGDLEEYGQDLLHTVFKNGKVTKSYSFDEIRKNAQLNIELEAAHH

SMILES | NAMPT Inhibition Code*
CC(=O)N(CC1CC1)c1ccc(-c2ccc(C(=O)NCCc3cccnc3)cn2)cc1C(F)(F)F [I-T2303, 6-[4-[Acetyl(cyclopropylmethyl)amino]-3-(trifluoromethyl)phenyl]-N-[2-(3-pyridyl)ethyl]pyridine-3-carboxamide] | C (C = ≥66% inhibition)
CC(=O)N(CC(F)F)c1ccc(-c2ccc(NC(=O)Cc3cccnc3)cn2)cc1Cl [I-T2290, N-[6-[4-[acetyl(2,2-difluoroethyl)amino]-3-chloro-phenyl]-3-pyridyl]-2-(3-pyridyl) acetamide] | C (C = ≥66% inhibition)
CC(=O)N(CC1CC1)c1ccc(-c2ccc(C(=O)NCC3CCCC34CC4)cn2)cc1Cl (stereo not shown) [I-T2343, 6-[4-[acetyl(cyclopropylmethyl)amino]-3-chloro-phenyl]-N-(spiro[2.4]heptan-7-ylmethyl)pyridine-3-carboxamide] | A (*A = <33% inhibition)
CC(=O)N(CC1CC1)c1ccc(-c2ccc(C(=O)NCCc3ccc(C)nc3)cn2)cc1Cl [I-T2309, 6-[4-[Acetyl(cyclopropylmethyl)amino]-3-chloro-phenyl]-N-[2-(6-methyl-3-pyridyl)ethyl]pyridine-3-carboxamide] | B (B = >33 to <66% inhibition)
CC(=O)N(CC1CC1)c1ccc(-c2ccc(NC(=O)C(F)c3ccccc3)cn2)cc1Cl (stereo not shown) [I-T2331, N-[6-[4-[acetyl(cyclopropylmethyl)amino]-3-chloro-phenyl]-3-pyridyl]-2-fluoro-2-phenyl-acetamide] | B (B = >33 to <66% inhibition)
CC(=O)N(CC1CC1)c1ccc(-c2ccc(C(=O)NCc3cscn3)cn2)cc1Cl [I-T2354, 6-[4-[acetyl(cyclopropylmethyl)amino]-3-chloro-phenyl]-N-(thiazol-4-ylmethyl)pyridine-3-carboxamide] | A (*A = <33% inhibition)
CC(=O)N(CC1CC1)c1ccc(-c2ccc(C(=O)NCc3cccs3)cn2)cc1Cl [I-T2352, 6-[4-[acetyl(cyclopropylmethyl)amino]-3-chloro-phenyl]-N-(2-thienylmethyl)pyridine-3-carboxamide] | B (B = >33 to <66% inhibition)
CC(=O)N(CC1CC1)c1ccc(-c2ccc(C(=O)NCc3ccccc3)cn2)cc1Cl [I-T2113, 6-[4-[Acetyl(cyclopropylmethyl)amino]-3-chloro-phenyl]-N-benzyl-pyridine-3-carboxamide] | C (C = ≥66% inhibition)
CC(=O)N(CC1CC1)c1ccc(-c2ccc(C(=O)NCCN3CCCCC3)cn2)cc1Cl [I-T2339, 6-[4-[acetyl(cyclopropylmethyl)amino]-3-chloro-phenyl]-N-[2-(1-piperidyl)ethyl]pyridine-3-carboxamide] | A (*A = <33% inhibition)
CC(=O)N(CC1CC1)c1ccc(-c2ccc(NC(=O)/C=C/c3cccnc3)cn2)cc1Cl [I-T2124, (E)-N-[6-[4-[acetyl(cyclopropylmethyl)amino]-3-chloro-phenyl]-3-pyridyl]-3-(3-pyridyl)prop-2-enamide] | C (C = ≥66% inhibition)
CC(=O)N(CC1CC1)c1ccc(-c2ccc(C(=O)NCC3CCOC3)cn2)cc1Cl (stereo not shown) [I-T2115, 6-[4-[Acetyl(cyclopropylmethyl)amino]-3-chloro-phenyl]-N-(tetrahydrofuran-3-ylmethyl) pyridine-3-carboxamide] | A (*A = <33% inhibition)
CC(=O)N(CC1CC1)c1ccc(-c2ccc(C(=O)Nc3cnc4nccn4c3)cn2)cc1Cl [I-T2140, 6-[4-[Acetyl(cyclopropylmethyl)amino]-3-chloro-phenyl]-N-imidazo[1,2-a]pyrimidin-6-yl-pyridine-3-carboxamide] | C (C = ≥66% inhibition)
CC(=O)N(CC1CC1)c1ccc(-c2ccc(C(=O)NCCc3cccc(F)c3)cn2)cc1Cl [I-T2342, 6-[4-[acetyl(cyclopropylmethyl)amino]-3-chloro-phenyl]-N-[2-(3-fluorophenyl)ethyl]pyridine-3-carboxamide] | C (C = ≥66% inhibition)
CC(=O)N(CC1CC1)c1ccc(-c2ccc(NC(=O)C3CC3c3cccnc3)cn2)cc1Cl (stereo not shown) [I-T2289, N-[6-[4-[acetyl(cyclopropylmethyl)amino]-3-chloro-phenyl]-3-pyridyl]-2-(3-pyridyl)cyclo propanecarboxamide] | C (C = ≥66% inhibition)
CC(=O)N(CC(F)F)c1ccc(-c2ccc(NC(=O)COc3cccnc3)cn2)cc1Cl [I-T2291, N-[6-[4-[acetyl(2,2-difluoroethyl)amino]-3-chloro-phenyl]-3-pyridyl]-2-(3-pyridyloxy)acetamide] | C (C = ≥66% inhibition)
CC(=O)N(CC(F)F)c1ccc(-c2ccc(C(=O)NCCc3cccnc3)cn2)cc1Cl [I-T2205, 6-[4-[Acetyl(2,2-difluoroethyl)amino]-3-chloro-phenyl]-N-[2-(3-pyridyl)ethyl]pyridine-3-carboxamide] | C (C = ≥66% inhibition)

SMILES | NAMPT Inhibition Code*
CC(=O)N(CC1CC1)c1ccc(-c2ccc(C(=O)NCc3cnccn3)cn2)cc1Cl [I-T2154, 6-[4-[Acetyl(cyclopropylmethyl)amino]-3-chloro-phenyl]-N-(pyrazin-2-ylmethyl)pyridine-3-carboxamide] | A (*A = <33% inhibition)
CC(=O)N(CC1CC1)c1ccc(-c2ccc(C(=O)NCc3nccs3)cn2)cc1Cl [I-T2356, 6-[4-[acetyl(cyclopropylmethyl)amino]-3-chloro-phenyl]-N-(thiazol-2-ylmethyl)pyridine-3-carboxamide] | A (*A = <33% inhibition)
CC(=O)N(CC1CC1)c1ccc(-c2ccc(NC(=O)CCc3ccc(F)nc3)cn2)cc1Cl [I-T2384, N-[6-[4-[acetyl(cyclopropylmethyl)amino]-3-chloro-phenyl]-3-pyridyl]-3-(6-fluoro-3-pyridyl)propanamide] | B (B = >33 to <66% inhibition)
CC(=O)N(CC1CC1)c1ccc(-c2ccc(C(=O)NCCCc3cn[nH]c3)cn2)cc1C#N [I-T2306, 6-[4-[acetyl(cyclopropylmethyl)amino]-3-cyano-phenyl]-N-[3-(1H-pyrazol-4-yl)propyl]pyridine-3-carboxamide] | C (C = ≥66% inhibition)
CC(=O)N(CC1COC1)c1ccc(-c2ccc(C(=O)NCc3ccccc3)cn2)cc1Cl [I-T2327, 6-[4-[acetyl(oxetan-3-ylmethyl)amino]-3-chloro-phenyl]-N-benzyl-pyridine-3-carboxamide] | A (*A = <33% inhibition)
CC(=O)N(CC1CC1)c1ccc(-c2ccc(NC(=O)/C=C/c3ccccc3)cn2)cc1Cl [I-T2329, (E)-N-[6-[4-[acetyl(cyclopropylmethyl)amino]-3-chloro-phenyl]-3-pyridyl]-3-phenyl-prop-2-enamide] | C (C = ≥66% inhibition)
CC(=O)N(CC1CC1)c1ccc(-c2ccc(C(=O)NCCCc3cn[nH]c3)cn2)cc1C(F)(F)F [I-T2304, 6-[4-[Acetyl(cyclopropylmethyl)amino]-3-(trifluoromethyl)phenyl]-N-[3-(1H-pyrazol-4-yl)propyl]pyridine-3-carboxamide] | C (C = ≥66% inhibition)
CC(=O)N(CC1CC1)c1ccc(-c2ccc(C(=O)NCCc3cn[nH]c3)cn2)cc1Cl [I-T2111, 6-[4-[Acetyl(cyclopropylmethyl)amino]-3-chloro-phenyl]-N-[2-(1H-pyrazol-4-yl)ethyl]pyridine-3-carboxamide] | C (C = ≥66% inhibition)
CC(=O)N(CC1CC1)c1ccc(-c2ccc(C(=O)Nc3ccc4[nH]cnc4c3)cn2)cc1Cl [I-T2137, 6-[4-[Acetyl(cyclopropylmethyl)amino]-3-chloro-phenyl]-N-(1H-benzimidazol-5-yl)pyridine-3-carboxamide] | C (C = ≥66% inhibition)
CC(=O)N(CC1CC1)c1ccc(-c2ccc(C(=O)NCCc3cccnc3)cn2)cc1Cl [I-T2130, 6-[4-[Acetyl(cyclopropylmethyl)amino]-3-chloro-phenyl]-N-[2-(3-pyridyl)ethyl]pyridine-3-carboxamide] | C (C = ≥66% inhibition)
CC(=O)N(CC1CC1)c1ccc(-c2ccc(C(=O)NCCCn3ccnc3)cn2)cc1Cl [I-T2128, 6-[4-[Acetyl(cyclopropylmethyl)amino]-3-chloro-phenyl]-N-(3-imidazol-1-ylpropyl)pyridine-3-carboxamide] | C (C = ≥66% inhibition)
CC(=O)N(CC1CC1)c1ccc(-c2ccc(C(=O)NCc3ccc(C(F)F)nc3)cn2)cc1Cl [I-T2397, 6-[4-[acetyl(cyclopropylmethyl)amino]-3-chloro-phenyl]-N-[[6-(difluoromethyl)-3-pyridyl]methyl]pyridine-3-carboxamide] | C (C = ≥66% inhibition)
CC(=O)N(CC1CC1)c1ccc(-c2ccc(NC(=O)CCc3cccnc3F)cn2)cc1Cl [I-T2369] | C (C = ≥66% inhibition)
CC(=O)N(CC1CC1)c1ccc(-c2ccc(NC(=O)Cc3ccc(F)cc3)cn2)cc1Cl [I-T2390, N-[6-[4-[acetyl(cyclopropylmethyl)amino]-3-chloro-phenyl]-3-pyridyl]-2-(4-fluorophenyl)acetamide] | B (B = >33 to <66% inhibition)
CC(=O)N(CC1CC1)c1ccc(-c2ccc(C(=O)NCc3cccnn3)cn2)cc1Cl [I-T2146, 6-[4-[Acetyl(cyclopropylmethyl)amino]-3-chloro-phenyl]-N-(pyridazin-3-ylmethyl)pyridine-3-carboxamide] | B (B = >33 to <66% inhibition)
